Results from ChEMBL document CHEMBL4507261, “Data for DCP probe A-192621” (2021).

Experiments:
[1] = target: Ephrin type-B receptor 4 (Homo sapiens) (UniProt P54760); conditions: Compound concentration 1000.0 nM
[2] = target: Tyrosine-protein kinase JAK3 (Homo sapiens) (UniProt P52333); conditions: Compound concentration 1000.0 nM
[3] = target: Ribosomal protein S6 kinase alpha-4 (Homo sapiens) (UniProt O75676); conditions: Compound concentration 1000.0 nM
[4] = target: Calcium-dependent protein kinase 1 (Plasmodium falciparum) (UniProt P62344); conditions: Compound concentration 1000.0 nM
[5] = target: Serine/threonine-protein kinase 25 (Homo sapiens) (UniProt O00506); conditions: Compound concentration 1000.0 nM
[6] = target: Hormonally up-regulated neu tumor-associated kinase (Homo sapiens) (UniProt P57058); conditions: Compound concentration 1000.0 nM
Sequence of Hormonally up-regulated neu tumor-associated kinase (Homo sapiens) (P57058 whole entry): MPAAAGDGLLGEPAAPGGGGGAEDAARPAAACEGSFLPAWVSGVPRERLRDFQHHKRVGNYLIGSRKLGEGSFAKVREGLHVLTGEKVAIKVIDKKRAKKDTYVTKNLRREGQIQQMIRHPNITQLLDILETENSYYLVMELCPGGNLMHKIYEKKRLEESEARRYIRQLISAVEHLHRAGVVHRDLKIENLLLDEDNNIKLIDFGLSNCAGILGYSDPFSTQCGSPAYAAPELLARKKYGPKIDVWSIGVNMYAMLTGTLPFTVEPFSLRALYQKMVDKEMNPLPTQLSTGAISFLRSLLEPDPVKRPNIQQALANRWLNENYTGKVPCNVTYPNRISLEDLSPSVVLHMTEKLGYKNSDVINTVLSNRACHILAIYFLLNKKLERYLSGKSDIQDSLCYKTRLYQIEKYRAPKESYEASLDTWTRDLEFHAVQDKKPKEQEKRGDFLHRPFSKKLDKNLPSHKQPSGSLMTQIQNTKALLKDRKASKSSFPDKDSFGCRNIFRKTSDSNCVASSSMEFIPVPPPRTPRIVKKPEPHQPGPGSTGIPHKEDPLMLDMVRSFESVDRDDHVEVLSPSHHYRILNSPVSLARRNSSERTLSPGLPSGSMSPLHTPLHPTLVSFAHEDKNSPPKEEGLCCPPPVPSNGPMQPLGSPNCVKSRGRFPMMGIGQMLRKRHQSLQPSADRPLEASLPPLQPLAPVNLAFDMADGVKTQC

[7] = target: Mitogen-activated protein kinase 10 (Homo sapiens) (UniProt P53779); conditions: Compound concentration 1000.0 nM
Sequence of Mitogen-activated protein kinase 10 (Homo sapiens) (P53779 whole entry): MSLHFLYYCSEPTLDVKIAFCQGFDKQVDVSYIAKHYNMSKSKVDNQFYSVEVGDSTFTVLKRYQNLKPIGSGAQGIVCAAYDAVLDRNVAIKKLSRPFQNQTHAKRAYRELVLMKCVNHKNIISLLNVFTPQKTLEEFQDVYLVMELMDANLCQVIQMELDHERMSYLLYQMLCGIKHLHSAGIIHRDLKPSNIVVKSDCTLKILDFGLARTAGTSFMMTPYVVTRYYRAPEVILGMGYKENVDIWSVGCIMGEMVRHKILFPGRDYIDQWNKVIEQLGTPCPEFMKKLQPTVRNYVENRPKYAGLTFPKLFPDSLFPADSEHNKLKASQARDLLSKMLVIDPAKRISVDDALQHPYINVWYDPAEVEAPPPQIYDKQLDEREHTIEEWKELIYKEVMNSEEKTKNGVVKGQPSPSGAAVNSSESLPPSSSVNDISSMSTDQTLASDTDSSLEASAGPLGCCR

[8] = target: Serine/threonine-protein kinase/endoribonuclease IRE1 (Homo sapiens) (UniProt O75460); conditions: Compound concentration 1000.0 nM
[9] = target: Dual specificity mitogen-activated protein kinase kinase 7 (Homo sapiens) (UniProt O14733); conditions: Compound concentration 1000.0 nM
[10] = target: Mitogen-activated protein kinase 1 (Homo sapiens) (UniProt P28482); conditions: Compound concentration 1000.0 nM
[11] = target: Serine/threonine-protein kinase NLK (Homo sapiens) (UniProt Q9UBE8); conditions: Compound concentration 1000.0 nM
Sequence of Serine/threonine-protein kinase NLK (Homo sapiens) (Q9UBE8 whole entry): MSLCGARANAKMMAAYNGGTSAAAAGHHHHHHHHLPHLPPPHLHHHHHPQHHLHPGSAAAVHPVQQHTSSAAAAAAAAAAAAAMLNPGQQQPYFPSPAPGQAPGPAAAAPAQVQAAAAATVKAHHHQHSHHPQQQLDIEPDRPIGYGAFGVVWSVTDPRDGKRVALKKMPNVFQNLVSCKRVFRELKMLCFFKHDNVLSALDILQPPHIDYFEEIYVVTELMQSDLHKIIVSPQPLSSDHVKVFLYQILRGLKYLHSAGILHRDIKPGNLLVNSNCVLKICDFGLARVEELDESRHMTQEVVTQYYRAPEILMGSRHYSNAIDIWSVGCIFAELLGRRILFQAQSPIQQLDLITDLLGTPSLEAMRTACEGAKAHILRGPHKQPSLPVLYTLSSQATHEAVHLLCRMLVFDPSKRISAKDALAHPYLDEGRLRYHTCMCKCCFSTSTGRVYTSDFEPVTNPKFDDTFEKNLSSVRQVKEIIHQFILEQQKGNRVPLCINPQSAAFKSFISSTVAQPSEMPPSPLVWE

[12] = target: Serine/threonine-protein kinase DCLK2 (Homo sapiens) (UniProt Q8N568); conditions: Compound concentration 1000.0 nM
[13] = target: Serine/threonine-protein kinase OSR1 (Homo sapiens) (UniProt O95747); conditions: Compound concentration 1000.0 nM
Sequence of Serine/threonine-protein kinase OSR1 (Homo sapiens) (O95747 2-527 limits assumed): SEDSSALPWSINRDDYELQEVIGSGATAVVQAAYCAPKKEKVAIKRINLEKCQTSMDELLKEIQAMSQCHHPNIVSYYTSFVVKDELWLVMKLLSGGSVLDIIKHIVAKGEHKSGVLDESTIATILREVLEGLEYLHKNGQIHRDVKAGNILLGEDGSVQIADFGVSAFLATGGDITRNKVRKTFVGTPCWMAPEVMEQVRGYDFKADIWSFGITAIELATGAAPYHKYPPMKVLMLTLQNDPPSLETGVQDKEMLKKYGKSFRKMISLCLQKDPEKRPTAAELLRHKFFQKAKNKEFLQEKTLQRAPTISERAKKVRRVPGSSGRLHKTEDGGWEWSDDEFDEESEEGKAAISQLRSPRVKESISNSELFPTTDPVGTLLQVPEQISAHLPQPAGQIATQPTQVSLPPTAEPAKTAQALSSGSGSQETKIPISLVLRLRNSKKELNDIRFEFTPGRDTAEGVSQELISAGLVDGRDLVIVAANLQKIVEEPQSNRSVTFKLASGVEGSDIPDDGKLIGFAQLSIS

[14] = target: Phosphorylase b kinase regulatory subunit alpha, liver isoform (Homo sapiens) (UniProt P46019); conditions: Compound concentration 1000.0 nM
[15] = target: Insulin receptor-related protein (Homo sapiens) (UniProt P14616); conditions: Compound concentration 1000.0 nM
[16] = target: Insulin-like growth factor 1 receptor (Homo sapiens) (UniProt P08069); conditions: Compound concentration 1000.0 nM
[17] = system: Tyrosine-protein kinase ABL1 (Homo sapiens), P00519 [F317I]; conditions: Compound concentration 1000.0 nM
[18] = target: Mitogen-activated protein kinase kinase kinase 12 (Homo sapiens) (UniProt Q12852); conditions: Compound concentration 1000.0 nM
[19] = target: MAP kinase-interacting serine/threonine-protein kinase 2 (Homo sapiens) (UniProt Q9HBH9); conditions: Compound concentration 1000.0 nM
[20] = target: Tyrosine-protein kinase JAK1 (Homo sapiens) (UniProt P23458); conditions: Compound concentration 1000.0 nM
Sequence of Tyrosine-protein kinase JAK1 (Homo sapiens) (P23458 whole entry): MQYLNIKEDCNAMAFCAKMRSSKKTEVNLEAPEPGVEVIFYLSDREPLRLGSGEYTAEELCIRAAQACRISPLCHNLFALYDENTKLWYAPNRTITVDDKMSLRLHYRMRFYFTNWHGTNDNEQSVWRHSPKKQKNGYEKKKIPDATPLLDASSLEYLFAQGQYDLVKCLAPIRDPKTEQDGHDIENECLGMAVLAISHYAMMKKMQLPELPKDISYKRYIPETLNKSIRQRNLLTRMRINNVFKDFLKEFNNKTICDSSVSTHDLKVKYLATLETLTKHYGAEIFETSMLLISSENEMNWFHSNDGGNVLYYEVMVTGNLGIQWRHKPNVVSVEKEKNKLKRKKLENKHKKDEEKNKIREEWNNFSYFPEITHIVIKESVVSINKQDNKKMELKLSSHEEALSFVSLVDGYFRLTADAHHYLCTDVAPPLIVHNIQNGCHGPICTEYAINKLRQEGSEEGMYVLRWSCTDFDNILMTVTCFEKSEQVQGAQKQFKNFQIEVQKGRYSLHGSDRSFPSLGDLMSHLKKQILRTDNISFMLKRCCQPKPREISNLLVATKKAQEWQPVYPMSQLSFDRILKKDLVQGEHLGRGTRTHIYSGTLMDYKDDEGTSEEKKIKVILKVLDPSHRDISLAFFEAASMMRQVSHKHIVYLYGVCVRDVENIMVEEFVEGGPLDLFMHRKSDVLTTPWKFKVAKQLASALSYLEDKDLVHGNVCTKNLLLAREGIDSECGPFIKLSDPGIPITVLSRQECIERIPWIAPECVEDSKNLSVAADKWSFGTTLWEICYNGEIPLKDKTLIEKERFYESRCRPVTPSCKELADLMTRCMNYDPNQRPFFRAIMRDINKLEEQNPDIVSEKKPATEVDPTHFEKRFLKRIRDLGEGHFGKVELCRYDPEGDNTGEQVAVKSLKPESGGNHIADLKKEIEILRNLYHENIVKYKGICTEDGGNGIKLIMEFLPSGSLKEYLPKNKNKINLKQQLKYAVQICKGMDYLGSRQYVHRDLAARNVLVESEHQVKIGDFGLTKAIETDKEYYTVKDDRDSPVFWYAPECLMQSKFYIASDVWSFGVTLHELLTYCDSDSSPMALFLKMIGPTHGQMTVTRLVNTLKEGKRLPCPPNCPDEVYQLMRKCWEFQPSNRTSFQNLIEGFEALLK

[21] = system: Tyrosine-protein kinase ABL1 (Homo sapiens), P00519 [Q252H]; conditions: Compound concentration 1000.0 nM
[22] = target: Epithelial discoidin domain-containing receptor 1 (Homo sapiens) (UniProt Q08345); conditions: Compound concentration 1000.0 nM
[23] = system: Epidermal growth factor receptor (Homo sapiens), P00533 [G719C]; conditions: Compound concentration 1000.0 nM
[24] = target: Tyrosine-protein kinase receptor UFO (Homo sapiens) (UniProt P30530); conditions: Compound concentration 1000.0 nM
[25] = target: Bone morphogenetic protein receptor type-2 (Homo sapiens) (UniProt Q13873); conditions: Compound concentration 1000.0 nM
[26] = target: Protein kinase C delta type (Homo sapiens) (UniProt Q05655); conditions: Compound concentration 1000.0 nM
[27] = target: Activated CDC42 kinase 1 (Homo sapiens) (UniProt Q07912); conditions: Compound concentration 1000.0 nM
[28] = target: Sodium- and chloride-dependent GABA transporter 1 (Rattus norvegicus) (UniProt P23978); experiment: GABA transporter Eurofins-Cerep binding assay; set-up: ligand concentration 10 nM; conditions: filed as antagonist, Compound concentration 10.0 uM
[29] = system: Phosphatidylinositol 4,5-bisphosphate 3-kinase catalytic subunit alpha isoform (Homo sapiens), P42336 [E542K]; conditions: Compound concentration 1000.0 nM
[30] = target: Rhodopsin kinase GRK1 (Homo sapiens) (UniProt Q15835); conditions: Compound concentration 1000.0 nM
[31] = target: Megakaryocyte-associated tyrosine-protein kinase (Homo sapiens) (UniProt P42679); conditions: Compound concentration 1000.0 nM
[32] = target: Serine/threonine-protein kinase PLK4 (Homo sapiens) (UniProt O00444); conditions: Compound concentration 1000.0 nM
[33] = target: Phosphatidylinositol 4,5-bisphosphate 3-kinase catalytic subunit alpha isoform (Homo sapiens) (UniProt P42336); conditions: Compound concentration 1000.0 nM
[34] = target: Serine/threonine-protein kinase Nek6 (Homo sapiens) (UniProt Q9HC98); conditions: Compound concentration 1000.0 nM
[35] = target: D(2) dopamine receptor (Homo sapiens) (UniProt P14416); experiment: D2S (h) Eurofins-Cerep binding assay; set-up: ligand concentration 0.3 nM; conditions: filed as antagonist, Compound concentration 10.0 uM
Sequence of D(2) dopamine receptor (Homo sapiens) (P14416 whole entry): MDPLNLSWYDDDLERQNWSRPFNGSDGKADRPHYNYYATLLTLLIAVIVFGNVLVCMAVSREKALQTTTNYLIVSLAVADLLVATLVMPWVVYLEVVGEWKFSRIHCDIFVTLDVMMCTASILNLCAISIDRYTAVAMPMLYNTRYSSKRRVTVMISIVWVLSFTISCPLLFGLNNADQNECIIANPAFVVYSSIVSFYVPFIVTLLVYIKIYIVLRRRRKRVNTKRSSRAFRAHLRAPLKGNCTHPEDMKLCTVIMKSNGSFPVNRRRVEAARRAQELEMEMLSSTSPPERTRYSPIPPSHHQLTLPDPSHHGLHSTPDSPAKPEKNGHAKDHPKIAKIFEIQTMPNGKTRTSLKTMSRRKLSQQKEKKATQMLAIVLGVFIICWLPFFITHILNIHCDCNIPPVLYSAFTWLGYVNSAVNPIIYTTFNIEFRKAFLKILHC

[36] = target: Serine/threonine-protein kinase 38 (Homo sapiens) (UniProt Q15208); conditions: Compound concentration 1000.0 nM
Sequence of Serine/threonine-protein kinase 38 (Homo sapiens) (Q15208 2-465 limits assumed): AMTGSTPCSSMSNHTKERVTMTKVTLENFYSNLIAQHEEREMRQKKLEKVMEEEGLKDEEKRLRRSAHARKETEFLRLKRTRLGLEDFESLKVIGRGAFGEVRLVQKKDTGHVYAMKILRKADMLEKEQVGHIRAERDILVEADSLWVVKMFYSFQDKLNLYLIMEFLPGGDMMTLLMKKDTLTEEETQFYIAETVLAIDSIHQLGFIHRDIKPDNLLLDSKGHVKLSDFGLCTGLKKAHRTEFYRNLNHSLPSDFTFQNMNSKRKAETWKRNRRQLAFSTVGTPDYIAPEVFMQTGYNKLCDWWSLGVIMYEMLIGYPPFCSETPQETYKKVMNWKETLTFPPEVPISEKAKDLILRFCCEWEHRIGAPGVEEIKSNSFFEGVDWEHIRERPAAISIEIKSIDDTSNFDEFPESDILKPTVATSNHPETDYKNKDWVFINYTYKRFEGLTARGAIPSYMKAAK

[37] = target: Serine/threonine-protein kinase RIO3 (Homo sapiens) (UniProt O14730); conditions: Compound concentration 1000.0 nM
[38] = target: Ribosomal protein S6 kinase alpha-2 (Homo sapiens) (UniProt Q15349); conditions: Compound concentration 1000.0 nM
Sequence of Ribosomal protein S6 kinase alpha-2 (Homo sapiens) (Q15349 whole entry): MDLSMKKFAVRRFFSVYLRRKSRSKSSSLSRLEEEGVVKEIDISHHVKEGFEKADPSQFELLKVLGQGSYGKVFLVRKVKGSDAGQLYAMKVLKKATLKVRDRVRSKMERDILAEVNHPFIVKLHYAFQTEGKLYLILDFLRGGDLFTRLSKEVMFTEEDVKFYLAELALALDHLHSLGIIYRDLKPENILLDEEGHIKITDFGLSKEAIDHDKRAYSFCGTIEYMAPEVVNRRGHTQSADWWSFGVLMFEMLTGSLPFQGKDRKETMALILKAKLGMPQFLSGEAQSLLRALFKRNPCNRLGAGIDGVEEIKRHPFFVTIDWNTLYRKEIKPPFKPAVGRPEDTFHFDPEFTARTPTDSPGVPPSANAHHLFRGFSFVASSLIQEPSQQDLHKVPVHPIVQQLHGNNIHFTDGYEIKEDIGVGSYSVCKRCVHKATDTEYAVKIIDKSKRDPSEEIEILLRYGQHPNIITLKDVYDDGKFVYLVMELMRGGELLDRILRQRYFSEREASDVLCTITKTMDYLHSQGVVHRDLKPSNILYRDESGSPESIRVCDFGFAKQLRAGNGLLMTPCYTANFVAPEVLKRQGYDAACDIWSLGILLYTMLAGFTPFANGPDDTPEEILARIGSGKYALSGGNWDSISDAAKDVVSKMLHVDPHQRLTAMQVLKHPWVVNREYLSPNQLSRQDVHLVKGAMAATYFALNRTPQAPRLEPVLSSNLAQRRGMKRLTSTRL

[39] = target: Cyclin-dependent kinase 9 (Homo sapiens) (UniProt P50750); conditions: Compound concentration 1000.0 nM

SMILES	residual activity [1] [%]	residual activity [2] [%]	residual activity [3] [%]	residual activity [4] [%]	residual activity [5] [%]	residual activity [6] [%]	residual activity [7] [%]	residual activity [8] [%]	residual activity [9] [%]	residual activity [10] [%]	residual activity [11] [%]	residual activity [12] [%]	residual activity [13] [%]	residual activity [14] [%]	residual activity [15] [%]	residual activity [16] [%]	residual activity [17] [%]	residual activity [18] [%]	residual activity [19] [%]	residual activity [20] [%]	further results
CCCOc1ccc([C@H]2[C@H](C(=O)O)[C@@H](c3ccc4c(c3)OCO4)CN2CC(=O)Nc2c(CC)cccc2CC)cc1 [A-192621]	100	84	68	88	100	100	80	86	74	100	100	77	75	86	94	89	71	52	74	94	residual activity [21]: 61%; residual activity [22]: 100%; residual activity [23]: 95%; residual activity [24]: 83%; residual activity [25]: 53%; residual activity [26]: 100%; residual activity [27]: 100%; % Inhibition of Control Specific Binding (Mean n=2) [28]: -12%; residual activity [29]: 75%; residual activity [30]: 68%; residual activity [31]: 83%; residual activity [32]: 78%; residual activity [33]: 80%; residual activity [34]: 96%; % Inhibition of Control Specific Binding (Mean n=2) [35]: 2.6%; residual activity [36]: 77%; residual activity [37]: 100%; residual activity [38]: 93%; residual activity [39]: 88%
CCCOc1ccc([C@@H]2[C@@H](C(=O)O)[C@H](c3ccc4c(c3)OCO4)CN2CC(=O)Nc2c(CC)cccc2CC)cc1 [A-1806262]	96	73	90	64	100	70	95	90	91	100	100	85	79	74	100	88	83	100	87	88	residual activity [21]: 92%; residual activity [22]: 89%; residual activity [23]: 98%; residual activity [24]: 93%; residual activity [25]: 69%; residual activity [26]: 100%; residual activity [27]: 90%; % Inhibition of Control Specific Binding (Mean n=2) [28]: -17.3%; residual activity [29]: 81%; residual activity [30]: 100%; residual activity [31]: 90%; residual activity [32]: 82%; residual activity [33]: 84%; residual activity [34]: 92%; % Inhibition of Control Specific Binding (Mean n=2) [35]: 1.8%; residual activity [36]: 83%; residual activity [37]: 100%; residual activity [38]: 100%; residual activity [39]: 87%
